According to ChEMBL document CHEMBL5465560, “Selectivity Literature for EUbOPEN Chemogenomic Library” (2024):
Blank lines part the entries; values can stand above or below the compound they belong to.

Assays:
[1] = target: Cyclin-dependent kinase 8 (Homo sapiens, UniProt P49336); conditions: at 10 µM
[2] = target: T1, Mitogen-activated protein kinase kinase kinase 12 (Homo sapiens) (UniProt Q12852); experiment: Selectivity interaction (Ambit KINOMEscan and KiNATiv profiling in Jurkat cells) EUB0000090b MAP3K12; format: cell-based; conditions: at 1 µM
T1 sequence (whole entry): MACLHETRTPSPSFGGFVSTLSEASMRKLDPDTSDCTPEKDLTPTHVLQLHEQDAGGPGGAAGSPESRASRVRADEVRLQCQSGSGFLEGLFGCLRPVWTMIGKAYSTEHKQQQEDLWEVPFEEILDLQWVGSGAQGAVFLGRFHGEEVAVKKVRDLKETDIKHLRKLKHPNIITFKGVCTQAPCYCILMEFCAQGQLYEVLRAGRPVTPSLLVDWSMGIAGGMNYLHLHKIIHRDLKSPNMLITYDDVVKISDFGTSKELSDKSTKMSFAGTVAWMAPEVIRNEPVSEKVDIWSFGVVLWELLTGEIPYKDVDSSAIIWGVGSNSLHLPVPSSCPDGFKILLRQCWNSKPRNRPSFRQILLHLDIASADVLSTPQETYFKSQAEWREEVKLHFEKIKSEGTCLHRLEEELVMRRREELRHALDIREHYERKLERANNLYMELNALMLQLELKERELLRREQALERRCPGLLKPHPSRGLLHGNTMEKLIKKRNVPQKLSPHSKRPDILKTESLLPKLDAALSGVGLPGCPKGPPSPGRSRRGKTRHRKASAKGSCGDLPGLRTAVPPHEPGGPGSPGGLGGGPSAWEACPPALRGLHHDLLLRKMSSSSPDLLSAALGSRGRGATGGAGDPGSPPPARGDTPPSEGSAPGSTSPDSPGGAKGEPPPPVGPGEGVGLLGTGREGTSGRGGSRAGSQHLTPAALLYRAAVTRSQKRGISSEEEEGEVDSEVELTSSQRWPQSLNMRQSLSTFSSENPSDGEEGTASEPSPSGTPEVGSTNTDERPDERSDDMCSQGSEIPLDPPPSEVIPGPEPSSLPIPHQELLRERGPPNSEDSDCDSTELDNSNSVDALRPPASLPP

[3] = target: Ephrin type-A receptor 5 (Homo sapiens) (UniProt P54756); experiment: Selectivity interaction (Kinase panel (Z-LYTE Assay)) EUB0001632a EPHA5; conditions: at 10 µM
Sequence of Ephrin type-A receptor 5 (Homo sapiens) (P54756 whole entry, canonical isoform): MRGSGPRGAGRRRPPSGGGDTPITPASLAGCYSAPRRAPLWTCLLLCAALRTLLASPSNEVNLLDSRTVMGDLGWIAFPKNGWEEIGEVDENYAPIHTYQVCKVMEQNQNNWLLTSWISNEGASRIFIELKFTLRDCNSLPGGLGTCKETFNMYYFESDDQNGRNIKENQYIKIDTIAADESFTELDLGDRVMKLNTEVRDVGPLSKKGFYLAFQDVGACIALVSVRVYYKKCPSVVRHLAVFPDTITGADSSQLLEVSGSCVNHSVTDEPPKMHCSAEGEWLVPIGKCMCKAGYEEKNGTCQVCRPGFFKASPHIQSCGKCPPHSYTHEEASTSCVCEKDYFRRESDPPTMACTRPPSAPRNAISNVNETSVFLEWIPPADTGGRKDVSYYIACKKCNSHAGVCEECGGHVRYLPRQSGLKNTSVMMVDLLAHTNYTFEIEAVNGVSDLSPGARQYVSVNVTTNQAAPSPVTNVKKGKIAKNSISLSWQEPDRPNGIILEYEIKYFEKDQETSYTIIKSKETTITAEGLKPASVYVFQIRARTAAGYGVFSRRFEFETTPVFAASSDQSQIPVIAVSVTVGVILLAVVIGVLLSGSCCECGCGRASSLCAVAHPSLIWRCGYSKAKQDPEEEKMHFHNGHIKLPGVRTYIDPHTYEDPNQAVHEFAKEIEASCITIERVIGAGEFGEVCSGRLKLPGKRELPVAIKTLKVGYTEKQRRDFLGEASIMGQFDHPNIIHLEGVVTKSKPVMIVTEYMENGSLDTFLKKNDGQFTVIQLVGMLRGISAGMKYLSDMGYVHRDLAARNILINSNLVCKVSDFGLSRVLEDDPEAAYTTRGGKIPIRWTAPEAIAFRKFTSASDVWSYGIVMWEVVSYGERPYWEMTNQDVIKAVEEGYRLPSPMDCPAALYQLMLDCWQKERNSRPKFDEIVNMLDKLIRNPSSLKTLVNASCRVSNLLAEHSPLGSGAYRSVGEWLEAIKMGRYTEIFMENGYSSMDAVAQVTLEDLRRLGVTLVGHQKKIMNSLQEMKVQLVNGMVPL

[4] = target: T2, Casein kinase I isoform alpha-like (Homo sapiens) (UniProt Q8N752); conditions: at 10 µM
T2 sequence (whole entry): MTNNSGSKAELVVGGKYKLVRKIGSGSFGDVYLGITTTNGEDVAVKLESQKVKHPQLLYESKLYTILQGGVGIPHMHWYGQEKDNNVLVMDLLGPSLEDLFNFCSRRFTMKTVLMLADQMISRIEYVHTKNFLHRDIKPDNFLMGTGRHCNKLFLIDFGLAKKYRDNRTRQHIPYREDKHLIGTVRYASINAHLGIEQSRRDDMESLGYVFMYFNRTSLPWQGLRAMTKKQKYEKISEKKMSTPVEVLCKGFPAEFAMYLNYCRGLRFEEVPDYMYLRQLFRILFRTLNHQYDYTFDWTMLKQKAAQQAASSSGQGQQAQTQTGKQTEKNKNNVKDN

[5] = target: Rho-associated protein kinase 2 (Homo sapiens, UniProt O75116); experiment: Selectivity interaction (KinomeScan (DiscoverX)) EUB0001079a ROCK2; conditions: at 1 µM
Sequence of Rho-associated protein kinase 2 (O75116 whole entry, looked up): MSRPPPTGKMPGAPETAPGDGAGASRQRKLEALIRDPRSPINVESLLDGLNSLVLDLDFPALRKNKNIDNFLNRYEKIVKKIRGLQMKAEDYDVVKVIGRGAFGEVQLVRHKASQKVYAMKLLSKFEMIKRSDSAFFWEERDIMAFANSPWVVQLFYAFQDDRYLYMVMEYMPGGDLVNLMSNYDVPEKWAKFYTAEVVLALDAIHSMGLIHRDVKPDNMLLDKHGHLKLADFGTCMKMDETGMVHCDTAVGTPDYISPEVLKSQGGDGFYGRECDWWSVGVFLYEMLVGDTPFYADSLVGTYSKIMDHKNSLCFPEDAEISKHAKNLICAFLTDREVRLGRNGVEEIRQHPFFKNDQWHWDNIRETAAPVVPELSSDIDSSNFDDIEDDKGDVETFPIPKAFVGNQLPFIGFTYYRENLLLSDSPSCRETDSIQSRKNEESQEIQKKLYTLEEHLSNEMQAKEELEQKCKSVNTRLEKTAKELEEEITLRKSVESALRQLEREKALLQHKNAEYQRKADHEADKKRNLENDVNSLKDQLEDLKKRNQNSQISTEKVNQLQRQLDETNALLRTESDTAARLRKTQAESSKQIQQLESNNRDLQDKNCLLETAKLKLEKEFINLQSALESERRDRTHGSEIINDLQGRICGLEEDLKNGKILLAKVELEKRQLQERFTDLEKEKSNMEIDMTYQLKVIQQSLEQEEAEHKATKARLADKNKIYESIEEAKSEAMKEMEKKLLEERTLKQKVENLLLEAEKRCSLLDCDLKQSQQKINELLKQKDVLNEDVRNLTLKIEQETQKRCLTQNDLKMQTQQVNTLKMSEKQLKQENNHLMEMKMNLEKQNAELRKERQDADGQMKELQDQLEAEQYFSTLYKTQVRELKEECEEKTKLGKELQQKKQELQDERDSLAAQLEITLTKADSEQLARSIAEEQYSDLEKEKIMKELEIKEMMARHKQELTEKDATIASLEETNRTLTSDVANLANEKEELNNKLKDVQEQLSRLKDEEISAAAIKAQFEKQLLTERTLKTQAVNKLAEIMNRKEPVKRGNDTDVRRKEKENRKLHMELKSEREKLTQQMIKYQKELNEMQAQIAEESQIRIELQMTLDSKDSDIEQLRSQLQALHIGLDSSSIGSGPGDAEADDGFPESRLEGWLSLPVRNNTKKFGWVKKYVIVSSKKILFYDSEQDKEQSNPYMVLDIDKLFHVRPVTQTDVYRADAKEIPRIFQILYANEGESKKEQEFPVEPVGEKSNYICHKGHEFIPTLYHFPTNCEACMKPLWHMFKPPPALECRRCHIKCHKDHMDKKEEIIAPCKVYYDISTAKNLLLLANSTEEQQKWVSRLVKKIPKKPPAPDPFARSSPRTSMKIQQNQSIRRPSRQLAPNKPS

[6] = target: T3, Serine/threonine-protein kinase BRSK2 (Homo sapiens) (UniProt Q8IWQ3); experiment: Selectivity interaction (ProQinase) EUB0000171b BRSK2
T3 sequence (whole entry): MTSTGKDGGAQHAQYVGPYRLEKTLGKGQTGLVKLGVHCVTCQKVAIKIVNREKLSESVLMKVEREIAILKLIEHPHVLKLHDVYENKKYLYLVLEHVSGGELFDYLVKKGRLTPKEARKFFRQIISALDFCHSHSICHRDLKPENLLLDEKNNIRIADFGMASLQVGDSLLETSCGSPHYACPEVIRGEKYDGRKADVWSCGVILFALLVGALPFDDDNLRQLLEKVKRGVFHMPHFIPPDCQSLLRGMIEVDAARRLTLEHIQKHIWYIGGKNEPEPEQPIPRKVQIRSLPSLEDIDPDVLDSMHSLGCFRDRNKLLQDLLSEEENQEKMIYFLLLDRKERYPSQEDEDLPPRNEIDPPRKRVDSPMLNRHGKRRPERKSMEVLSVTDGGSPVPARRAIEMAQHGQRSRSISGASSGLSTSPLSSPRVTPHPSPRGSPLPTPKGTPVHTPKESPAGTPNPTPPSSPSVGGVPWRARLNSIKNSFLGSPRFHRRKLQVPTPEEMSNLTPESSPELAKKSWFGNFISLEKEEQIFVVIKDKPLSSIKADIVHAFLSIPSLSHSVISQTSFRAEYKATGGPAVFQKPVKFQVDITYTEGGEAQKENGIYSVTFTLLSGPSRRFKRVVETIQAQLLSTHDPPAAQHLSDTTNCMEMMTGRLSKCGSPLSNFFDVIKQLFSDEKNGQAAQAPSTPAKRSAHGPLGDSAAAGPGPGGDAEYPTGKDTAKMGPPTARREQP

[7] = target: Ribosomal protein S6 kinase alpha-5 (Homo sapiens) (UniProt O75582); experiment: Selectivity interaction (KinomeScan (DiscoverX)) EUB0000092b RPS6KA5; conditions: at 10 µM
Sequence of Ribosomal protein S6 kinase alpha-5 (Homo sapiens) (O75582 whole entry, looked up): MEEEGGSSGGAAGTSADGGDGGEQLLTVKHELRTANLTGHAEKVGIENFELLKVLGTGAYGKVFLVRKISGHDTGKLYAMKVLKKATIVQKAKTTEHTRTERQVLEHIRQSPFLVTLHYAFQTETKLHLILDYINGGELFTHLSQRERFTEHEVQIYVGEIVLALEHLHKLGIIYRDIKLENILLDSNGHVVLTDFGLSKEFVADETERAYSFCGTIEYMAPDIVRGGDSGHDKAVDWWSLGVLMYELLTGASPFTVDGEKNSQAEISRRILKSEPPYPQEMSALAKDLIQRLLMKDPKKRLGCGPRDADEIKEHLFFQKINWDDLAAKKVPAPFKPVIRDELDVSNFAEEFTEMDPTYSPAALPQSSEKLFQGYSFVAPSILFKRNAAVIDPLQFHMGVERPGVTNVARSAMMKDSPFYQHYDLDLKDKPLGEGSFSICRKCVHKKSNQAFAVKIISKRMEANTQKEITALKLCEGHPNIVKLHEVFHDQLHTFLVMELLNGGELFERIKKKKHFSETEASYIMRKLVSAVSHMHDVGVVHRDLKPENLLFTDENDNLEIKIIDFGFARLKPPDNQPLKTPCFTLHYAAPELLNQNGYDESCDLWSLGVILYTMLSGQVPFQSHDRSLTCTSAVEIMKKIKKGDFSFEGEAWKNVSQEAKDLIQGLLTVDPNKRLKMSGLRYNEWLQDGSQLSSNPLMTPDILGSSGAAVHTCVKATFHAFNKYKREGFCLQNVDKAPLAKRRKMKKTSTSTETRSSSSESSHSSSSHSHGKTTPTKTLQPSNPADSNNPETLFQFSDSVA

[8] = target: Mitogen-activated protein kinase 1 (Homo sapiens, UniProt P28482); experiment: Selectivity interaction (ActivX KiNativ screen (ex vivo kinase selectivity in human PBMCs)) EUB0001619a MAPK1; format: cell-based; conditions: PBMC, at 1 µM
Sequence of Mitogen-activated protein kinase 1 (P28482 whole entry): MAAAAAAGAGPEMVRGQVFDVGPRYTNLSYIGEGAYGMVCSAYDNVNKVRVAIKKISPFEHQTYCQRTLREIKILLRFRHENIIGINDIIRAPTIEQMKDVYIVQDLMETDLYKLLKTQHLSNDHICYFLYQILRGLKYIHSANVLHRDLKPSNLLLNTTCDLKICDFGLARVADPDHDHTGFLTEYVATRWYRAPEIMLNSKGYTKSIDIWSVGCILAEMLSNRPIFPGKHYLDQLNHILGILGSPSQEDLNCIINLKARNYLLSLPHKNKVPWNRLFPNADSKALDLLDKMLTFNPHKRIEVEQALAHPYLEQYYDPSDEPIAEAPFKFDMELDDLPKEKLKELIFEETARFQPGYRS

Sequence of Cyclin-dependent kinase 8 (P49336 whole entry): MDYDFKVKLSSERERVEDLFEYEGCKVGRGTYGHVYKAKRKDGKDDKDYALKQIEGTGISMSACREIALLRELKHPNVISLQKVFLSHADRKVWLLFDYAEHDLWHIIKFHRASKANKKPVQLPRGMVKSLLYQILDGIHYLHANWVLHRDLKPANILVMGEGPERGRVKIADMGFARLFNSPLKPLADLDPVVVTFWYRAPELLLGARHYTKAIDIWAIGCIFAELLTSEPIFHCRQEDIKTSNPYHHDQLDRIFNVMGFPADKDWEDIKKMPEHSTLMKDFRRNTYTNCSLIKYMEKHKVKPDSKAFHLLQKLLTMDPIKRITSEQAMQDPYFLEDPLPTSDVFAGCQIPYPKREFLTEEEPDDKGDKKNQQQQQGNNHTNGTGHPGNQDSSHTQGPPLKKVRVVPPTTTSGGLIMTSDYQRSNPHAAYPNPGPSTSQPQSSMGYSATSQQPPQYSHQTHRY

Structure (SMILES): Cc1cc([C@@H](C)Nc2ccccc2C(=O)O)c2nc(N3CCOCC3)cc(=O)n2c1 [AZD-6482]
% of control [1]: 79%

Structure (SMILES): CN(C)C/C=C/C(=O)Nc1ccc(C(=O)N2CCCC(Nc3ncc(Cl)c(-c4c[nH]c5ccccc45)n3)C2)cc1 (centres undefined)
% of control [2]: 89%

% of control [3]: 6.77%
Structure (SMILES): Cn1cc(-n2cnc3c(NCc4nc5cc(Cl)c(Cl)cc5[nH]4)nc(N4CCOCC4)nc32)cn1

Structure (SMILES): COCC(=O)NC/C=C/c1ccc2ncnc(Nc3ccc(Oc4ccc(C)nc4)c(C)c3)c2c1 [CP-724714]
% of control [4]: 82%

Structure (SMILES): Nc1cnc(N2CCc3cc(S(=O)(=O)Nc4c(F)cc(Cl)cc4F)cc(N4CCCC4=O)c32)nc1 [TP-020n]
% of control [5]: 100%

% of control ([6]; at 1 µM): 103% | % of control ([6]; at 5 µM): 85%
Structure (SMILES): C=CC(=O)Nc1cccc(C(=O)Nc2ccc(Nc3cc(-c4[nH]c(SC)nc4C)ccn3)cc2)c1

Structure (SMILES): CCC(=O)N1CCN(c2ccc(-n3c(=O)ccc4cnc5ccc(-c6cnc7ccccc7c6)cc5c43)cc2C(F)(F)F)CC1
% of control [7]: 100%

Structure (SMILES): N#Cc1cccc(-c2c[nH]c3ncnc(N4CCOCC4)c23)c1
% of inhibition [8]: 3%
